Side effects data for one compound are collected here from patent US20080227728A1, “Therapeutic Agent for the Treatment of a Condition Associated with Peripheral Vascular Disease” (LABORATORIOS BELMAC, S.A., priority 2005, published 2008).

For the data set, the system named is individuals showing problems related to venous insufficiency. The experiment in a line: Administration of oleuropein to patients suffering from venous insufficiency (general statements). As to conditions: compared with other drugs known for peripheral vascular disease symptoms.

Molecules are shown by their SMILES.

For the compound `C/C=C1/[C@H](O[C@@H]2O[C@H](CO)[C@@H](O)[C@H](O)[C@H]2O)OC=C(C(=O)OC)[C@H]1CC(=O)OCCc1ccc(O)c(O)c1` [oleuropein], the side effects entry is reported as “do not show significant side effects”.
